“Also recorded” adds a separate entry of the source.

In data set [1] the test system is lymphedema (mouse tail lymphatic ablation). Put plainly: Mouse tail skin/lymphatic ablation model of lymphedema, 6 weeks of treatment. Particulars: wild-type mice, 6 weeks after lymphatic ablation. It is filed as in vivo. An excerpt:
To determine if FTY720 treatment can be useful for treating lymphedema, we next performed tail skin/lymphatic ablations on wild-type mice and treated experimental animals with FTY720 and control animals with vehicle only for 6 weeks.
To induce lymphedema, we used a mouse tail model in which a 5 vmm portion of the mid-tail is excised and the deep lymphatic collecting vessels are ligated. Avraham et al., Am. J. Pathol. 177:3202 (2010); Clavin et al., Am. J. Physiol. Heart Circ. Physiol. 295:H2113 (2008); Rutkowski et al., Microvasc. Res. 72:161 (2006); Tabibiazar et al., PloS Med 3:e254 (2006). This model reliably results in sustained tail swelling, severe impairment in lymphatic function, and histopathologic features consistent with clinical lymphedema, lasting as long as 10 weeks after surgery. Avraham et al., Am. J. Pathol. 177:3202 (2010); Clavin et al., Am. J. Physiol. Heart Circ. Physiol. 295:H2113 (2008); Rutkowski et al., Microvasc. Res. 72:161 (2006); Tabibiazar et al., PloS Med 3:e254 (2006). In other experiments, animals were randomized to either PLND or sham surgery. PLND was performed as previously reported, removing the nodes, surrounding fat pad, and afferent/efferent lymphatics. Control animals underwent sham popliteal surgeries where a skin incision was made in the area of the popliteal lymph node without nodal resection. Although sustained lymphedema is not observed here, it has previously been described as a means of analyzing regeneration of collateral lymphatics and collecting lymphatic pumping capacity. Proulx et al., Biomaterials 34:5128 (2013); Sharma et al., Am. J. Physiol. Heart and Circul. Physiol. 292:H3109 (2007).
In other experiments, WT mice underwent tail or popliteal lymphatic ablation surgeries and were subsequently randomized to treatment with FTY720 (Sigma Aldrich, St. Louis, Mo.), an […] modulator that blocks lymphocyte egress from lymph nodes. Metzler et al., Int. Immunol. 20:633 (2008); Kharel et al., J. Biol. Chem. 280:36865 (2005). Briefly, FTY720 was dissolved in water as per the manufacturer's recommendations, and supplied ad libitum starting the day of lymphatic ablation. Mice received an estimated 1.25 mg/kg/day for 2 or 6 weeks (for PLND or tail surgeries, respectively) until tissues were harvested. […]
Tail volumes were calculated weekly using the truncated cone formula. […]
Subcutaneous adipose tissue thickness measurements were analyzed by 2 blinded reviewers (n=5-6 animals/group) using standardized cross-sections by measuring from the width of tissues bounded by the reticular dermis to the deep fascia in 4 standardized regions per section. Capillary lymphatic vessel area was quantified as previously described using Panoramic viewer software (3DHistech, Budapest, Hungary) in four 40× high-power fields/animal per group. […]

A further data set relates to CD4+ cells. Put plainly: CD4+ cell flow cytometry of lymph nodes and hind limb skin after PLND and adoptive transfer, with or without FTY720. The following applies: CD4KO mice, PLND, 24 hours after adoptive transfer of CD4+ cells. Format: in vivo, mouse. As to the method:
Metzler et al., Int. Immunol. 20:633 (2008); Kharel et al., J. Biol. Chem. 280:36865 (2005). Control animals were treated with vehicle alone.
To induce lymphedema, we used a mouse tail model in which a 5 vmm portion of the mid-tail is excised and the deep lymphatic collecting vessels are ligated. Avraham et al., Am. J. Pathol. 177:3202 (2010); Clavin et al., Am. J. Physiol. Heart Circ. Physiol. 295:H2113 (2008); Rutkowski et al., Microvasc. Res. 72:161 (2006); Tabibiazar et al., PloS Med 3:e254 (2006). This model reliably results in sustained tail swelling, severe impairment in lymphatic function, and histopathologic features consistent with clinical lymphedema, lasting as long as 10 weeks after surgery. Avraham et al., Am. J. Pathol. 177:3202 (2010); Clavin et al., Am. J. Physiol. Heart Circ. Physiol. 295:H2113 (2008); Rutkowski et al., Microvasc. Res. 72:161 (2006); Tabibiazar et al., PloS Med 3:e254 (2006). […]
Culture expanded naïve CD4^+ cells (1×10^7) were suspended in 100 μL of sterile phosphate buffered saline (PBS) and adoptively transferred to CD4KO mice by weekly retro-orbital sinus injections beginning two weeks after surgery for 2 or 4 weeks (for PLND or lymphatic tail ablation, respectively), followed by sacrifice. […] Delivery of CD4^+ cells was confirmed using flow cytometry to quantify CD4^+ cells in single cell suspensions created from spleens and aortic lymph nodes. […]

A further data set concerns lymphedema. The following applies: cited from earlier work.
Setting [2] is: FTY720 estimated 1.25 mg/kg/day in water, vs vehicle.

For `CCCCCCCCc1ccc(CCC(N)(CO)CO)cc1` [FTY720, 2-amino-2-[2-(4-octylphenyl)ethyl]propane-1,3-diol], in data set [1] (setting [2]), the “tail fibrosis (gross analysis)” value was “lack of swelling and fibrosis; also recorded: markedly decreased”; the “tail swelling (gross analysis)” value was “lack of swelling; also recorded: markedly decreased”. Besides, the “fibroadipose tissue deposition (thickness)” value in data set [1] (cross-sectional histology, vs vehicle control) was “decreased fibroadipose tissue deposition; also recorded: significant decreases”. Besides, in data set [1] (vs vehicle control), the “tail volumes (percentage change)” value was “lack of swelling; also recorded: significant decreases”. Also, in the data set with CD4+ cells (vs vehicle treated PLND mice), the “CD4+ cells in the hind limb skin” value is “decreased the number of these cells in hind limb skin; also recorded: marked decrease”. Moreover, the “accumulation of CD4+ cells in the inguinal lymph node” value with CD4+ cells (vs vehicle, FTY720 in drinking water, estimated 1.25 mg/kg/day) was “prevented release of CD4+ cells from the lymph node; also recorded: increased significantly”.

Turning to `O=c1ccc2ccccc2o1` [Coumarin], the “clinical success in patients with lymphedema” value in the data set with lymphedema is reported as “modest success”. Moreover, the toxicity result in the data set on lymphedema (patients with lymphedema) was “significant toxicity including liver failure and death”.
